Source: patent US10442835B2, “Water-soluble rapamycin derivatives” (Zhejiang Hisun Pharmaceutical Co., Ltd., priority 2016, dated 2019)
Values joined by “and” are separate entries in the source; they are usually repeats but may differ in a detail not shown here. Identical values can stand only once.

Key:
[1] = system: prostate cancer cell DU145; assay: In vitro activity assay, growth of DU145; format: cell-based; conditions: Homo sapiens; DU-145; 48 h
Source text: (§1) The anti-tumor activity and toxicity of the compounds according to the present invention can be assayed through standard operational procedures of pharmacological experiment. The experiments carried out herein can test the inhibitory effect of the compounds according to the present invention on the growth of human liver cancer cell HepG2, lung cancer cell NCI460, prostate cancer cell DU145, prostate cancer cell PC3, and human breast cancer cell MDA-MB-435. The operational procedure used is briefly described below by taking the inhibitory activity assay against human liver cancer cell HepG2 as an example.
(§2) The operational procedure for the assay is as follows:
(§3) 1. Cells after being trypsinized were inoculated in 96-well plates at a concentration of 10^4 cells/well, and allowed to grow in a medium with a final volume of 200 μL. The 96-well plates after inoculation are allowed to stand for 24 hours at 37° C., in order to allow the cells to adhere to the surface of the wells.
(§4) 2. The medium was removed by carefully pipetting without disturbing the cell monolayer. 200 μL Fresh medium was added into each well. It is arranged to make it possible to collect samples from enough wells to run the experiments in triplicate.
(§5) 3. The compounds to be tested according to the present invention were dissolved into 10 μL phosphate buffered solution (PBS) and incubated for 48 h at 37° C.
(§6) 4. In the last 6 h of incubation, cells in each well of the 96-well plates were labeled by 1 microcurie T thymidine (New England Nuclear thymidine), by adding 10 μL PBS containing 1 microcurie T thymidine (which was added into the PBS on the day of collecting the samples for test). The 96-well plates were then returned to the incubator and incubated for the last 6 h.
(§7) 5. Without disturbing the cell monolayer, the radioactive medium was removed by pipetting. Then 50 μL of BRL 10×trypsin was added to each well, followed by incubation at 37° C. for 10 minutes or until the cell monolayer was detached from the bottom (or the wall) of each well. Samples were collected on glass-fiber diskettes using a Skatron 96-well cell harvester. Cells depositing on the glass-fiber diskettes were counted in a Wallac Betaplate counter.

[2] = system: DU145; assay: In vivo tumor inhibitory efficacy against DU145 tumor in nude mice, intragastrical vs injection; conditions: G1 everolimus 5 mg/kg intragastrical, 3×/w, 4 w
Experimental: (§8) DU145 (the 3rd generation) tumors in the rapid proliferation stage inoculated in the axilla of nude mice were cut into tumor lumps with a size of 1 mm*1 mm*1 mm and then were inoculated subcutaneously to the right limb of nude mice using a trocar under a sterile condition. When the tumors grow to 150-200 mm^3, the mice were randomly divided into three groups and then administrated with the compounds for 4 weeks. The major diameter (a) and the minor diameter (b) of the tumors were measured 2 or 3 times a week. The tumor volume (TV) was calculated with the following equation: TV=½×a×b^2. Tumors were stripped and weighted at Day 28 and the tumor inhibition rate was calculated using the following equation: (tumor weight of control−tumor weight of experimental group)/tumor weight of control×100%.
(§9) The nude mice were divided into 3 groups with 4 mice per group when the tumors averagely grew to about 185-200 mm^3, depending on the growth regularity of the tumor and the dosage regimen.

[3] = system: lung cancer cell NCI460; assay: In vitro activity assay, growth of NCI460; format: cell-based; conditions: NCI-460, 48 h
Source text: as §1, §2, §3, §4, §5, §6, §7

[4] = system: human renal cell carcinoma OS-RC-2; assay: In vivo inhibitory activity against human renal cell carcinoma OS-RC-2 in nude mice
Experimental: The tumor inhibition rate was calculated.

[5] = system: human lung cancer cell NCI-H460; assay: In vivo inhibitory activity against NCI-H460 tumor in nude mice; conditions: everolimus 5 mg/kg, compound I-1 6.8 mg/kg, qw 4×
[6] = system: human liver cancer cell HepG2; assay: In vitro activity assay, growth of HepG2 (thymidine incorporation); format: cell-based; conditions: 48 h
Source text: as §1
Human liver cancer cell HepG2 grew in the follow medium:
Preparation of the growth medium: BRL minimum essential medium with Earle Salts (500 mL), with the addition of the following agents:
as §2, §3, §4, §5, §6, §7

[7] = system: human breast cancer cell MDA-MB-435; assay: In vitro activity assay, growth of MDA-MB-435; format: cell-based; conditions: 48 h
Source text: as §1, §2, §3, §4, §5, §6, §7

[8] = Body weight of DU145 tumor nude mice; conditions: G1 everolimus 5 mg/kg intragastrical, 3×/w, 4 w;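 also: dosing started once xenografts reached 150-200 mm^3, with mice randomized into three groups, loss of body weight served as an indirect sign of drug toxicity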
Experimental: as §8, §9
G1: positive drug group: Everolimus (5 mg/kg, qw, 4 w, 3×/w); administration route: intragastrical administration;

[9] = system: prostate cancer cell PC3; assay: In vitro activity assay, growth of PC3; format: cell-based; conditions: 48 h
Source text: as §1, §2, §3, §4, §5, §6, §7

[10] = Body weight of NCI-H460 tumor nude mice; conditions: everolimus 5 mg/kg, compound I-1 6.8 mg/kg, qw 4×;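 also: Tumor-bearing mice dosed for 4 weeks once tumors reached 150–200 mm^3, with a vehicle control group, and body weight loss taken as an indirect sign of drug toxicity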
Experimental: NCI-H460 (the 3rd generation) tumors in the rapid proliferation stage inoculated in the axilla of nude mice were cut into tumor lumps with a size of 1 mm*1 mm*1 mm and then were inoculated subcutaneously to the right limb of nude mice using a trocar under a sterile condition. When the tumors grew to 150˜200 mm^3, the mice were divided into groups and then administrated with the compounds for 4 weeks. The major diameter (a) and the minor diameter (b) of the tumors were measured two or three times a week. The tumor volume (TV) and the relative tumor proliferation rate (T/C) were calculated. The equation for calculating the tumor volume is: TV=½×a×b^2. The equation for calculating the relative tumor proliferation rate is T/C=TRTC/CRTV (TRTC: average relative tumor volume in the treatment group; CRTV: average relative tumor volume in the vehicle control group). Tumors were stripped and weighted at Day 28 and the tumor-inhibition rate was calculated with the following equation: (tumor weight of control−tumor weight of experimental group)/tumor weight of control×100%.
Grouping method: the mice were divided into 3 groups with 6 mice per group when the tumors averagely grew to about 195 mm^3, depending on the growth regularity of the tumor and the dosage regimen. Administration route: intragastrical administration.
G1: Control (vehicle, qw 4×, iv)
G2: Positive drug group: Everolimus (5 mg/kg, qw 4×, iv)

Structure (SMILES): CO[C@H]1C[C@@H]2CC[C@@H](C)[C@@](O)(O2)C(=O)C(=O)N2CCCC[C@H]2C(=O)O[C@H]([C@H](C)C[C@@H]2CC[C@@H](OCCO)[C@H](OC)C2)CC(=O)[C@H](C)/C=C(\C)[C@@H](O)[C@@H](OC)C(=O)[C@H](C)C[C@H](C)/C=C/C=C/C=C/1C [Everolimus, reference compound]
- IC50 [1]: 57.327 ± 0.005 µM
- Mean Volume of Tumor ([2]; Day 0): 198.71 mm^3
- Mean Volume of Tumor ([2]; Day 3): 216.57 mm^3
- Mean Volume of Tumor ([2]; Day 7): 208.07 mm^3
- Mean Volume of Tumor ([2]; Day 10): 215.24 mm^3
- Mean Volume of Tumor ([2]; Day 14): 236.94 mm^3
- Mean Volume of Tumor ([2]; Day 17): 268.62 mm^3
- Mean Volume of Tumor ([2]; Day 21): 298.50 mm^3
- Mean Volume of Tumor ([2]; Day 24): 289.57 mm^3
- Mean Volume of Tumor ([2]; Day 28): 302.22 mm^3
- IC50 [3]: 99.811 ± 0.004 µM
- Tumor Inhibition Rate ([4]; G2 everolimus 2 mg/kg ig 3×/qw): 35.6%
- Tumor Inhibition Rate ([4]; G3 everolimus 6 mg/kg ig 3×/qw): 41.1%
- Tumor Weight ± SD ([4]; end of experiment, G3 everolimus 6 mg/kg ig 3×/qw): 0.4093 ± 0.3863 g
- Mean Volume of Tumor ([5]; Day 0): 194.8659 mm^3
- Mean Volume of Tumor ([5]; Day 3): 264.7517 mm^3
- TRTV (average relative tumor volume in the treatment group) ([5]; Day 3): 1.3586
- Mean Volume of Tumor ([5]; Day 7): 356.6133 mm^3
- TRTV (average relative tumor volume in the treatment group) ([5]; Day 7): 1.8300
- Mean Volume of Tumor ([5]; Day 10): 457.1105 mm^3
- TRTV (average relative tumor volume in the treatment group) ([5]; Day 10): 2.3458
- Mean Volume of Tumor ([5]; Day 14): 626.5192 mm^3
- TRTV (average relative tumor volume in the treatment group) ([5]; Day 14): 3.2151
- Mean Volume of Tumor ([5]; Day 17): 730.3766 mm^3
- TRTV (average relative tumor volume in the treatment group) ([5]; Day 17): 3.7481
- Mean Volume of Tumor ([5]; Day 21): 1386.2102 mm^3
- TRTV (average relative tumor volume in the treatment group) ([5]; Day 21): 6.6005
- Mean Volume of Tumor ([5]; Day 24): 1593.5901 mm^3
- TRTV (average relative tumor volume in the treatment group) ([5]; Day 24): 7.1515
- Tumor Inhibition Rate ([5]; Day 28, by tumor weight): 56% and 56.01%
- Mean Volume of Tumor ([5]; Day 28): 1955.7073 mm^3
- TRTV (average relative tumor volume in the treatment group) ([5]; Day 28): 9.5230
- Tumor Weight ± SD ([5]; Day 28): 1.1741 ± 0.3687 g
- IC50 [6]: 52.29 ± 0.006 µM
- IC50 [7]: 62.57 ± 0.003 µM
- Body Weight, mean value ([8]; Day 0): 24.36 g
- Body Weight, mean value ([8]; Day 3): 24.68 g
- Decrease rate (body weight) ([8]; Day 3): −1.32%
- Decrease in body weight ([8]; Day 3 vs Day 0): -0.32 g
- Body Weight, mean value ([8]; Day 7): 24.99 g
- Decrease rate (body weight) ([8]; Day 7): −2.59%
- Decrease in body weight ([8]; Day 7 vs Day 0): -0.63 g
- Body Weight, mean value ([8]; Day 10): 24.93 g
- Decrease rate (body weight) ([8]; Day 10): −2.32%
- Decrease in body weight ([8]; Day 10 vs Day 0): -0.57 g
- Body Weight, mean value ([8]; Day 14): 24.94 g
- Decrease rate (body weight) ([8]; Day 14): −2.38%
- Decrease in body weight ([8]; Day 14 vs Day 0): -0.58 g
- Body Weight, mean value ([8]; Day 17): 25.88 g
- Decrease rate (body weight) ([8]; Day 17): −6.24%
- Decrease in body weight ([8]; Day 17 vs Day 0): -1.52 g
- Body Weight, mean value ([8]; Day 21): 25.27 g
- Decrease rate (body weight) ([8]; Day 21): −3.75%
- Decrease in body weight ([8]; Day 21 vs Day 0): -0.91 g
- Body Weight, mean value ([8]; Day 24): 25.33 g
- Decrease rate (body weight) ([8]; Day 24): −3.96%
- Decrease in body weight ([8]; Day 24 vs Day 0): -0.97 g
- Body Weight, mean value ([8]; Day 28): 25.31 g
- Decrease rate (body weight) ([8]; Day 28): −3.90%
- Decrease in body weight ([8]; Day 28 vs Day 0): -0.95 g
- IC50 [9]: 30.27 ± 0.006 µM
- Body Weights, mean value ([10]; Day 0): 24.50 g
- Body Weights, mean value ([10]; Day 3): 24.38 g
- Decrease rate (body weight) ([10]; Day 3): 0.51%
- Decrease in body weight ([10]; Day 3 vs Day 0): 0.13 g
- Body Weights, mean value ([10]; Day 7): 25.44 g
- Decrease rate (body weight) ([10]; Day 7): −3.82%
- Decrease in body weight ([10]; Day 7 vs Day 0): -0.94 g
- Body Weights, mean value ([10]; Day 10): 24.50 g
- Decrease rate (body weight) ([10]; Day 10): 0.00%
- Decrease in body weight ([10]; Day 10 vs Day 0): 0.00 g
- Body Weights, mean value ([10]; Day 14): 25.68 g
- Decrease rate (body weight) ([10]; Day 14): −4.83%
- Decrease in body weight ([10]; Day 14 vs Day 0): -1.18 g
- Body Weights, mean value ([10]; Day 17): 25.39 g
- Decrease rate (body weight) ([10]; Day 17): −3.63%
- Decrease in body weight ([10]; Day 17 vs Day 0): -0.89 g
- Body Weights, mean value ([10]; Day 21): 26.13 g
- Decrease rate (body weight) ([10]; Day 21): −6.65%
- Decrease in body weight ([10]; Day 21 vs Day 0): -1.63 g
- Body Weights, mean value ([10]; Day 24): 25.09 g
- Decrease rate (body weight) ([10]; Day 24): −2.41%
- Decrease in body weight ([10]; Day 24 vs Day 0): -0.59 g
- Body Weights, mean value ([10]; Day 28): 26.14 g
- Decrease rate (body weight) ([10]; Day 28): −6.67%
- Decrease in body weight ([10]; Day 28 vs Day 0): -1.64 g
